Results taken from PMC12916826 (Nature Communications, 2026).
Positions count from the first letter of the chain named. Read-outs that look alike come from different tables or passages of the source.

Assays:
[1] = cited from earlier work
[2] = cited from earlier work; remark: listed apart in the source
mice with stroke = conditions: cited from earlier work
[3] = cited from earlier work; remark: listed apart in the source
[4] = cited from earlier work; remark: listed apart in the source
hGAT3 [5] = molecular target: T1, hGAT3 (Homo sapiens, UniProt P48066); experiment: [3H]GABA competition uptake assay, wild-type hGAT3 in HEK293T cells; type: cell-based
T1 sequence (P48066 1-632): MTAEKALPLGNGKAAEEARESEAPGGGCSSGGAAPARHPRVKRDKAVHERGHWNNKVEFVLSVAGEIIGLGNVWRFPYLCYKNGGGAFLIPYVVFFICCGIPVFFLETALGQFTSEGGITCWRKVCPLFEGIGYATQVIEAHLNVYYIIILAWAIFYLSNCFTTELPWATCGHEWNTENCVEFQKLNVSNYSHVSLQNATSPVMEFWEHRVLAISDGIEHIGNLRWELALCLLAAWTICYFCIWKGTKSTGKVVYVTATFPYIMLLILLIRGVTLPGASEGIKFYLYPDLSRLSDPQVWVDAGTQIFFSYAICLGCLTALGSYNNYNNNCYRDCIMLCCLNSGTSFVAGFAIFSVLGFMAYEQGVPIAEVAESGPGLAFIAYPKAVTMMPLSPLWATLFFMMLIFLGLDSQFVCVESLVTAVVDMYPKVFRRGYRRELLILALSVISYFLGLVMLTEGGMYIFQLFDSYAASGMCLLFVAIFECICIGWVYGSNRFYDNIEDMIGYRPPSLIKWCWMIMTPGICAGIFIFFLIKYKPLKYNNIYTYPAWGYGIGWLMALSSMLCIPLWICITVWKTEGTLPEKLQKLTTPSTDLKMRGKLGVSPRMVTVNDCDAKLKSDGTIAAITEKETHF

hGAT3-C316S = molecular target: T2, hGAT3-C316S (Homo sapiens, UniProt P48066, C316S); experiment: [3H]GABA competition uptake assay, hGAT3-C316S mutant in HEK293T cells; type: cell-based
T2 sequence (P48066 1-632 C316S): T1 sequence (P48066 1-632) with C316S

hGAT3-eGFP = molecular target: T3, hGAT3-eGFP (Homo sapiens, UniProt P48066); experiment: Confocal microscopy of membrane-localized hGAT3-eGFP fluorescence; type: cell-based; conditions: 100 µM SR-THAP; 1 h incubation; versus buffer
T3 sequence (P48066 1-632): T1 sequence (P48066 1-632)

hGAT3 [6] = molecular target: T1, hGAT3; experiment: [3H]GABA uptake kinetic; type: cell-based; conditions: with and without preincubation
hGAT3 [7] = molecular target: T1, hGAT3; experiment: FLIPR membrane potential; type: cell-based

**Q.** Which chemical stability [1] does the source give for `COc1ccc(C(OCCN2CCC[C@H](C(=O)O)C2)(c2ccc(OC)cc2)c2ccc(OC)cc2)cc1` [(S)-SNAP-5114, (S)−1-{2-[Tris(4-methoxyphenyl)methoxy]ethyl}piperidine-3-carboxylic acid] here?
**A.** poor

**Q.** And the “brain uptake after systemic administration” value [2]?
**A.** limited

**Q.** What about the in vivo toxicity (mice with stroke) of the same compound?
**A.** severe in vivo toxicity

**Q.** And the solubility [3]?
**A.** limited

**Q.** And the cellular toxicity [4]?
**A.** cellular toxicity

**Q.** For `COc1ccc(C(/C=C/CN2CCC[C@@H]2[C@H](O)C(=O)O)(c2ccc(OC)cc2)c2ccc(OC)cc2)cc1` [SR-THAP, (2S, 2′R)−2-hydroxy-2-(1-((E)−4,4,4-tris(4-methoxyphenyl)but-2-en-1-yl)pyrrolidin-2′-yl)acetic acid], which “time to equilibrium between extracellular and cytosolic compound” value (hGAT3 [5]; from preincubation time course) is on record?
**A.** ≤ 15 min

**Q.** And the IC50 (hGAT3 [5]; read-out: IC50, inhibition of [3H]GABA uptake by hGAT3, 120 min preincubation (with preincubation), HEK293T cells)?
**A.** 4.9 µM

**Q.** And the “increase in potency after 120-min preincubation” value (hGAT3 [5]; versus without preincubation)?
**A.** five-fold

**Q.** What about the IC50 (hGAT3-C316S; read-out: IC50, inhibition of [3H]GABA uptake by hGAT3-C316S, 120 min preincubation) of the same compound?
**A.** 10.6 µM

**Q.** And the “surface expression of hGAT3 (membrane-localized eGFP fluorescence)” value (hGAT3-eGFP)?
**A.** No difference

**Q.** And the “mode of inhibition ([3H]GABA uptake kinetics)” value (hGAT3 [6])?
**A.** non-competitive

**Q.** What about the “substrate-like response / transport in FMP assay” value (hGAT3 [7]; 50 µM GABA, 20 µM SR-THAP, compared with buffer) of the same compound?
**A.** no substrate-like response

**Q.** What about the “mode of inhibition (FMP Michaelis-Menten kinetics)” value (hGAT3 [7]; absence of preincubation) of the same compound?
**A.** non-competitive

**Q.** Which IC50 (hGAT3 [5]) does the source give for `NCCCC(=O)O` [GABA, γ-Aminobutyric acid, reference compound] here?
**A.** 6.9 µM

**Q.** And the IC50 (hGAT3-C316S)?
**A.** 4.2 µM
